From patent US20130195919A1, “INDUCED DENDRITIC CELL COMPOSITIONS AND USES THEREOF” (PRESIDENT AND FELLOWS OF HARVARD COLLEGE, priority 2010, published 2013)

Columns and labels:
DC [1] = test: Oxygen consumption rate (OCR) of DC; format: cell-based, mouse; settings: 2 h activation; oATP with or without LPS co-treatment
Description: Mitochondria oxygen consumption rate (OCR) was measured by using a YSI 5300 Clark-type electrode (Yellow Springs Instrument, Yellow Springs, Ohio, USA) or the XF24 Extracellular Flux Analyzer (Seahorse Bioscience, Billerica, Mass.) following the manufacturer's protocol. Primary cultured DC (10^6 cells/well) were used as described in the experiments.
The effect of the activation of DC on the O2 consumption rate (OCR) was tested to attempt to correlate increased OCR with increased immunogenicity.
(§1) The effect of direct inhibition of mitochondrial respiration, by an inhibitor of mitochondrial respiratory complex I, rotenone, was tested. […] Control DC were treated with LPS without OVA pulsing. T cell proliferation was analyzed by CFSE dilution on D3.

DC [2] = test: DC maturation marker expression by FACS; format: cell-based, mouse; settings: 100 μM, 6 hours
Description: DC were isolated and kept for 6 hours at 4 degrees (ctrlDC 4C) or culture to produce ctrlDC (37C), lpsDC itDC and it/lpsDC. Simultaneously cells were treated with the purinergic receptor agonists ATP (1 mM) and Bz-ATP (100 μM), purinergic receptors antagonists oxidized ATP (oATP, 100 μM) and suranim (100 μM), the adenosine monophosphate kinase (AMPK) stimulator AICAR (100 μM) and the enzyme Apyrase (200 U/ml) that catalyses ATP. Cells were harvested after 6 hours and the expression of the indicated markers was assessed by FACS.

DC [3] = test: Ex vivo Treg differentiation: Foxp3 induction in Tn by treated DC; format: cell-based, mouse
DC [4] = test: DC immunogenicity: OT-II T cell proliferation by CFSE dilution; format: cell-based, mouse; settings: LPS plus 1 mM rotenone; CFSE dilution on D3
Description: as §1

DC [5] = tested on: DC

| Molecule | OCR of DC (DC [1]) | DC maturation (expression of markers) (DC [2]) | further results |
| --- | --- | --- | --- |
| Nc1ncnc2c1ncn2[C@@H]1O[C@H](COP(=O)(O)OP(=O)(O)OP(=O)(O)O)[C@@H](O)[C@H]1O [ATP, adenosine triphosphate] | enhanced OCR levels in DCs |  |  |
| NC(=O)c1ncn([C@@H]2O[C@H](CO)[C@@H](O)[C@H]2O)c1N [AICAR, 5-aminoimidazole-4-carboxamide-1-β-4-ribofuranoside] |  | block DC maturation |  |
| Periodate-oxidized ATP [oATP] | reduced OCR | block DC maturation | capacity to imprint DC with tolerogenic potential (percentages of Foxp3 and CD25 expressing cells) (DC [3]; DC incubated 2 hours, oATP 100 μM, 5 days in coculture): significantly imprints DC with tolerogenic potential; tolerogenic capacity compared with the combination of rapamycin and TGFβ (DC [3]; oATP 100 μM vs rapamycin 10 nM and TGFβ 2 ng/ml): matches or exceeds |
| C=C(C)[C@H]1Cc2c(ccc3c2O[C@@H]2COc4cc(OC)c(OC)cc4[C@@H]2C3=O)O1 [rotenone] |  |  | T cell proliferation induced by antigen pulsed, LPS matured DC (DC [4]): induced much less T cell proliferation; toxicity to DC (maturation markers CD80, C86, MHC-II and migration to CCL21) (DC [5]): not toxic to DC |
